According to patent US10201531B2, “Indazolyl-oxo-isothiazole compounds” (MOCHIDA PHARMACEUTICAL CO., LTD., priority 2015, dated 2019):

Tested on: Nrf2
Assay: Evaluation of Nrf2 activation ability (Nrf2d-LacZ / Keap1 HEK293 reporter, Beta-Glo luminescence)
Format: cell-based, human
Details: rated A/B/C, Pharmacological Test Example 1
Experimental: HEK293 cells constantly expressing Nrf2d-LacZ (human Nrf2 degron region fused to LacZ; Hirotsu et al, Genes to Cell, Vol. 16, pp. 406-415 (2011)) and human Keap1 were seeded 7,000 cells/27 μl/well on 384-well plates (Corning 384 Well Flat Clear Bottom White Polystyrene TC-Treated Microplates, Cat. #3707), and cultured overnight at 5% CO2, 37° C. in DMEM medium containing 10% FBS, 100 U/mL penicillin and 100 μg/mL streptomycin. 3 μL/well of a 0.1% DMSO solution of the compound of the invention was added to the cells, which were then cultured for 3 hours at 5% CO2, 37° C. Beta-Glo® reagent (Promega, Beta-Glo Assay System, Cat. #E4740) was added 15 μL/well and incubated for 1 hour at room temperature, and luminescence intensity was measured with a luminometer. Using CDDO-Im as a standard, Nrf2 activation ability was calculated given 100% as the luminescence under stimulus with 100 nM CDDO-Im.

| EC50 | Compound |
| --- | --- |
| < 1000 nM | [O-][s+]1nc(O)cc1-n1ncc2cc(-c3ccccc3F)ccc21 (centres unmarked) [Example 83] |
| < 1000 nM | [O-][s+]1nc(O)cc1-n1ncc2cc(-c3cccc(F)c3)ccc21 (centres unmarked) [Example 84] |
| < 1000 nM | [O-][s+]1nc(O)cc1-n1ncc2cc(-c3ccc(F)cc3)ccc21 (centres unmarked) [Example 85] |
| < 1000 nM | COc1ccc(-c2ccc3c(cnn3-c3cc(O)n[s+]3[O-])c2)cn1 (centres unmarked) [Example 86] |
| 1000 to 5000 nM | [O-][s+]1nc(O)cc1-n1ncc2cc(-c3ccc(N4CCCC4)nc3)ccc21 (centres unmarked) [Example 87] |
| < 1000 nM | [2H]c1cccc(-c2ccc3c(cnn3-c3cc(O)n[s+]3[O-])c2)n1 (centres unmarked) [Example 89] |
| < 1000 nM | [O-][s+]1nc(O)cc1-n1ncc2cc(-c3ccc(N4CCCCC4)nc3)ccc21 (centres unmarked) [Example 90] |
| 1000 to 5000 nM | [O-][s+]1nc(O)cc1-n1ncc2c(-c3cccnc3)cccc21 (centres unmarked) [Example 92] |
| 1000 to 5000 nM | [O-][s+]1nc(O)cc1-n1ncc2c(C3=CCC(F)(F)CC3)cccc21 (centres unmarked) [Example 93] |
| 5000 to 10000 nM | [O-][s+]1nc(O)cc1-n1ncc2c(C3=CCOCC3)cccc21 (centres unmarked) [Example 95] |
| 1000 to 5000 nM | COc1cc(-c2cccc3c2cnn3-c2cc(O)n[s+]2[O-])ccn1 (centres unmarked) [Example 97] |
| 1000 to 5000 nM | [O-][s+]1nc(O)cc1-n1ncc2c(-c3ccc(C4CC4)nc3)cccc21 (centres unmarked) [Example 98] |
| 1000 to 5000 nM | Cc1cncc(-c2cccc3c2cnn3-c2cc(O)n[s+]2[O-])c1 (centres unmarked) [Example 100] |
| 1000 to 5000 nM | Cn1cc(-c2cccc3c2cnn3-c2cc(O)n[s+]2[O-])cn1 (centres unmarked) [Example 101] |
| 1000 to 5000 nM | [O-][s+]1nc(O)cc1-n1ncc2ccc(C3=CCC(F)(F)CC3)cc21 (centres unmarked) [Example 102] |
| 1000 to 5000 nM | [O-][s+]1nc(O)cc1-n1ncc2ccc(C3=CCOCC3)cc21 (centres unmarked) [Example 103] |
| 1000 to 5000 nM | CC(C)(C)OC(=O)N1CC=C(c2ccc3cnn(-c4cc(O)n[s+]4[O-])c3c2)CC1 (centres unmarked) [Example 104] |
| 1000 to 5000 nM | [O-][s+]1nc(O)cc1-n1ncc2ccc(-c3ccc(N4CCCC4)nc3)cc21 (centres unmarked) [Example 106] |

| EC50 | Compound |
| --- | --- |
| 1000 to 5000 nM | [O-][s+]1nc(O)cc1-n1ncc2c(-c3ccc(N4CCCC4)nc3)cccc21 (centres unmarked) [Example 107] |
| 1000 to 5000 nM | N#Cc1ccc(-c2ccc3c(cnn3-c3cc(O)n[s+]3[O-])c2)nc1 (centres unmarked) [Example 108] |
| 1000 to 5000 nM | COc1cc(-c2ccc3cnn(-c4cc(O)n[s+]4[O-])c3c2)ccn1 (centres unmarked) [Example 110] |
| 1000 to 5000 nM | [O-][s+]1nc(O)cc1-n1ncc2ccc(-c3ccc(C4CC4)nc3)cc21 (centres unmarked) [Example 111] |
| 5000 to 10000 nM | Cc1cncc(-c2ccc3cnn(-c4cc(O)n[s+]4[O-])c3c2)c1 (centres unmarked) [Example 113] |
| < 1000 nM | [O-][s+]1nc(O)cc1-n1ncc2cc(-c3cccc(C(F)F)n3)ccc21 (centres unmarked) [Example 116] |
| < 1000 nM | Cc1cccc(-c2ccc3c(cnn3-c3cc(O)n[s+]3[O-])c2)n1 (centres unmarked) [Example 117] |
| 1000 to 5000 nM | Cc1cncc(-c2ccc3c(cnn3-c3cc(O)n[s+]3[O-])c2)n1 (centres unmarked) [Example 118] |
| 1000 to 5000 nM | [O-][s+]1nc(O)cc1-n1ncc2cc(-c3ccc(F)cn3)ccc21 (centres unmarked) [Example 119] |
| 1000 to 5000 nM | N#Cc1cccc(-c2ccc3c(cnn3-c3cc(O)n[s+]3[O-])c2)n1 (centres unmarked) [Example 120] |
| 1000 to 5000 nM | [O-][s+]1nc(O)cc1-n1ncc2cc(-c3ccc(Cl)cn3)ccc21 (centres unmarked) [Example 121] |
| 1000 to 5000 nM | [O-][s+]1nc(O)cc1-n1ncc2cc(-c3cnc(C4CC4)cn3)ccc21 (centres unmarked) [Example 122] |
| < 1000 nM | Cc1cnc(-c2ccc3c(cnn3-c3cc(O)n[s+]3[O-])c2)cn1 (centres unmarked) [Example 123] |
| < 1000 nM | COc1ncccc1-c1ccc2c(cnn2-c2cc(O)n[s+]2[O-])c1 (centres unmarked) [Example 124] |
| 1000 to 5000 nM | O=c1ccc(-c2ccc3c(cnn3-c3cc(O)n[s+]3[O-])c2)c[nH]1 (centres unmarked) [Example 125] |
| 1000 to 5000 nM | [O-][s+]1nc(O)cc1-n1ncc2cc(-c3ccc(N4CCOCC4)nc3)ccc21 (centres unmarked) [Example 126] |
| < 1000 nM | COc1cccc(-c2ccc3c(cnn3-c3cc(O)n[s+]3[O-])c2)n1 (centres unmarked) [Example 129] |
